From patent publication US20250282732A1, “NOVEL ESTERS OF 1,2,3,4,4a,5,6,7,8,9,10,10a-DODECAHYDROBENZO[G]QUINOLIN-6-OL COMPOUNDS AND USES THEREOF” (INTEGRATIVE RESEARCH LABORATORIES SWEDEN AB, priority 2022, published 2025)

Experiments:
Type in all cases: in vivo, rat
Arc mRNA = Arc mRNA tissue levels in brain regions (real-time PCR); conditions: SC, 0.3 and 1 μmol/kg; 60 min after injection; vs controls
Protocol: (§1) Animals were killed 60 min after the injection of the drugs by decapitation.
(§2) The brains were dissected into a left and a right part. The left part was analyzed for gene expression and dissected into 4 different areas:
(§3) Limbic system (containing nucleus accumbens, most parts of the olfactory tubercle, ventral pallidum and amygdala), striatum, frontal cortex, and hippocampus.
(§4) Total RNA was prepared by RNeasy Plus Universal Tissue Mini Kit (Qiagen).
(§5) RNA pellets were dissolved in RNAse-free water and stored at −80° C. The sample concentration was determined spectrophotometrically by a Nanorop ND-1000.
A two-step reversed transcription was performed by using a SuperScript III kit (Invitrogen). 1 μg of total RNA was reversed transcribed with 5 μl 2× RT Reaction Mix, 1 μl RT Enzyme and the mix volume was adjusted to 10 μl with RNAse-free water. The samples were incubated at 25° C. for 10 mi, 50° C. for 30 mi and finally 85° C. for 5 mi. 1 U of E. coli RNase H was added following incubation at 37° C. for 20 mi and 85° C. for 5 minutes. The cDNA solution was diluted 40 times in Tris EDTA buffer solution pH8 (Merck) and stored at −20° C.
Three sequences (arc and two reference genes) were amplified together in a triplex PCR-reaction. For real-time PCR measurements: 5 μl of the cDNA reaction was amplified in a 20 μl reaction mixture containing 10 μl PerfeCTa MultiPlex qPCR SuperMix (Quantabio), 3.5 μl RNAse-free water, 0.15 μM of each primer and 0.1 μM of each probe. Real-time PCR was measured on CFX96 (Bio-Rad) using the following settings for all genes: 3 mi pre-incubation at 95° C. followed by 40 cycles of denaturation at 95° C. for 15s, annealing and elongation at 60° C. for 1 mi. […]
FIG. 5 illustrates the effects on tissue levels of Arc mRNA in four different regions of the brain (limbic regions, striatum, frontal cortex and hippocampus) after subcutaneous administration of two different compounds at two different doses as in comparison to that of corresponding control experiments. The bars in the left half of the figure represent the effects on ARC by the prior art compound according to Preparation 4A ((4aR,10aR)-1-propyl-1,2,3,4,4a,5,8,9,10,10a-decahydrobenzo[g]quinolin-6(7H)-one) and the bars in the right half of the figure represent the effects on ARC by the compound of the present disclosure according to Example 5 oxalic acid salt of ((4aR,10aR)-1-propyl-1,2,3,4,4a,5,6,7,8,9,10,10a-dodecahydrobenzo[g]quinolin-6-yl acetate (Mixture of 6R and 6S epimers). The effects on tissue levels of Arc by both of the two aforementioned compounds were measured at two different doses (0.3 μmol/kg and 1 μmol/kg) and the effect is presented as percent of control means±SEM. Statistical significance was assessed using Student's t-test (2 tailed) vs controls.

Npas4 = Npas4 mRNA tissue levels in brain regions (TaqMan PCR); conditions: 60 min after injection; to a greater extent than the prior art compound according to Preparation 4A
Protocol: as §1, §2, §3, §4, §5
A two-step reversed transcription was performed by using a SuperScript III kit (Invitrogen). 1 μg of total RNA was reversed transcribed with 5 μl 2× RT Reaction Mix, 1 μl RT Enzyme and the mix volume was adjusted to 10 μl with RNAse-free water. The samples were incubated at 25° C. for 10 mi, 50° C. for 30 mi and finally 85° C. for 5 mi. […]
EGR-1 (Early growth response qRnoCEP0022872) was analyzed in duplex with the reference gene HPRT (hypoxanthine phosphoribosyltransferase qRnoCEP0050840). Npas4 (neuronal PAS domain protein4 qRnoCEP0029461) was analyzed in singleplex. The reference gene Ppia (cyclophilin A peptidyl-propyl cis-trans isomeraseqRnoCIP0050815) was also analyzed in order to quantify gene expression for genes of interest.

[1] = system: non-pre-treated Sprague-Dawley rats; test: Spontaneous locomotor activity (distance travelled); conditions: for effect on motor activity patterns (distance travelled): 0.3 μmol/kg single dose, Preparation 4A SC, Example 5 PO and SC, vs saline, 0-180 min post dosing; for on-set of action (distance travelled increases after the initial decrease): time after administration
Protocol: Behavioral activity was measured using eight Digiscan activity monitors (RXYZM (16) TAO, Omnitech Electronics, Columbus, OH, USA), connected to an Omnitech Digiscan analyzer and an Apple Macintosh computer equipped with a digital interface board (NB DIO-24, National Instruments, USA). Each activity monitor consisted of a quadratic metal frame (W×L=40 cm×40 cm) equipped with photo beam sensors. During measurements of behavioral activity, a rat was put in a transparent acrylic cage (W×L×H, 40×40×30 cm) which in turn was placed in the activity monitor. Each activity monitor was equipped with three rows of infrared photo beam sensors, each row consisting of 16 sensors. Two rows were placed along the front and the side of the floor of the cage, at a 90° angle, and the third row was placed 10 cm above the floor to measure vertical activity. Photo beam sensors were spaced 2.5 cm apart. Each activity monitor was fitted in an identical sound and light attenuating box containing a weak house light and a fan. The computer software was written using object-oriented programming (LabVIEW™, National instruments, Austin, TX, USA). Behavioral data from each activity monitor, representing the position (horizontal center of gravity and vertical activity) of the animal at each time, were recorded at a sampling frequency of 25 Hz and collected using a custom written LABView™ application. The data from each recording session were stored and analyzed with respect to distance traveled. Each behavioral recording session lasted 180 min, starting approximately 5 min after the injection of test compound.
Compounds disclosed herein have been tested for effects on spontaneous locomotor activity in non-pre-treated Sprague-Dawley rats (based on accumulated distance travelled 0-180 min post dosing), and with the single dose of 0.3 μmol/kg (n=5, SC) compared to a control group of animals (n=5) that obtained saline (SC). The prior art compound according to Preparation 4A was administered subcutaneously (SC). The compound according to Example 5 was administered perorally (PO) and subcutaneously (SC), respectively. The unit of the distance travelled is an arbitrary unit.
The animals were placed in the motility meters immediately after administration and locomotor activity was recorded for 180 minutes. Results are presented as distance travelled for the control group (empty bar) and for the group of animals that obtained the drug (filled bar).
The animals were placed in the motility meters immediately after administration and locomotor activity was recorded for 180 minutes. Results are presented as distance travelled for the control group (empty bars) and for the group of animals that obtained the drug (filled bar).

Compound | tissue levels of Arc in the frontal cortex (Arc mRNA) | tissue levels of Arc in the limbic regions (Arc mRNA) | tissue levels of Npas4 in the limbic regions (Npas4) | effect on motor activity patterns (distance travelled) [1] | duration of action as compared to the prior art compound (trend) ([1]; 0.3 μmol/kg, increase in desired effect observed much later in the experiment) | on-set of action (distance travelled increases after the initial decrease) ([1]; 0.3 μmol/kg) | immediate effect on motor activity: long distance travelled already within ([1]; 0.3 μmol/kg SC)
CCCN1CCC[C@@H]2CC3=C(CCCC3OC(C)=O)C[C@H]21.O=C(O)C(=O)O (stereo partly drawn) [Example 5, (4aR,10aR)-1-propyl-1,2,3,4,4a,5,6,7,8,9,10,10a-dodecahydrobenzo[g]quinolin-6-yl acetate] | dose-dependently increase | dose-dependently increases | increases tissue levels | induce hyperactivity | longer duration of action | 35 to 40 min | 
CCCN1CCC[C@@H]2CC3=C(CCCC3=O)C[C@H]21 [Preparation 4A, (4aR,10aR)-1-propyl-1,2,3,4,4a,5,8,9,10,10a-decahydrobenzo[g]quinolin-6(7H)-one, reference compound] | dose-dependently increase | does not have |  | induce hyperactivity |  | 20 to 25 min | 20 to 45 min
